Laboratory results as given in publication PMC6381124, “Aplysinopsin-type and Bromotyrosine-derived Alkaloids from the South China Sea Sponge Fascaplysinopsis reticulata” (Scientific Reports, 2019).

Tests used:
[1] = system: human cervical cancer (HeLa) cell lines; assay: Cytotoxicity assay (MTT method) against HeLa cell lines; assay type: cell-based; conditions: HeLa cells
Protocol: (§1) The cytotoxicity assay of the isolated compounds were evaluated against human lung carcinoma (A549), human cervical cancer (HeLa), human leukemia (K562), and human T-cell leukemia (Jurkat) cell lines using the MTT method with Doxorubicin as the positive control.

[2] = Cytotoxicity assay (MTT method) against Jurkat cell lines; assay type: cell-based; conditions: human, Jurkat cells (human T-cell leukemia), Doxorubicin as positive control
Protocol: as §1

SMILES	IC50 [1] [µM]	IC50 [2] [nM]
CN1C(=O)N(C)C(O)(CC2(O)C(=O)Nc3ccccc32)C1=O (single isomer, unassigned; (+)) [(+)-3, (+)-oxoaplysinopsin C]	27	
CN1C(=O)N(C)C(O)(CC2(O)C(=O)Nc3ccccc32)C1=O (single isomer, unassigned; (-)) [(−)-3, (−)-oxoaplysinopsin C]	61.6	
COC(=O)NCCCCCNC(=O)C1=NO[C@]2(C=C(Br)C(OC)=C(Br)[C@@H]2O)C1 [Compound 19, Subereamolline D]		880
